Measurements taken from patent publication US20250353898A1, “SERPIN PEPTIDE DERIVATIVES AND METHODS OF USING THE SAME” (priority 2022, published 2025).
Positions of bridges follow the written chain, without caps; N, C: chain ends. Non-standard residues stand in square brackets, D forms with d. Residues, ends and D or L forms follow the SMILES beside them. Nle = CCCC[C@H](N)C(=O)O

Legend:
[1] = target: T1, TMPRSS2 (Homo sapiens, UniProt O15393); assay: cell-based; conditions: overexpressing cell system; read-out: IC50 against TMPRSS2 (converted)
T1 construct: expressed in transfected cells

[2] = system: NFκB; assay: NFκB reporter assay (SEAP) in THP1-XBlue-MD2-CD14 cells after LPS; assay type: cell-based
Description: The NFκB inducible Secreted Embryonic Alkaline Phosphatase (SEAP) was measured in the supernatant and read for absorbance.
(§1) Various SERPIN peptide derivatives were screened in vitro for their ability to reduce TNFα and NFκB secretion via LRP-1 activation. The NFκB reporter cells (THP1-XBlue-MD2-CD14 cells) were treated with each peptide derivative at various concentrations, up to 100 μg/ml before being insulted with LPS (5 ng/ml) and incubated overnight. The NFκB inducible Secreted Embryonic Alkaline Phosphatase (SEAP) was measured in the supernatant and read for absorbance. IMG Microglial cells were treated with each peptide derivative at various concentrations, up to 100 μg/ml before LPS (100 ng/ml) stimulation for 24 hours. An ELISA was used to measure TNFα in the supernatant ([…]).

[3] = system: TNFα; assay: TNFα secretion in IMG microglial cells after LPS (ELISA); assay type: cell-based; conditions: FIG. 6A/7, up to 50 μg/mL, LPS 100 ng/ml 24 hours; versus SP163M, SA7
Description: In the NFκB reporter cells, the NFκB inducible Secreted Embryonic Alkaline Phosphatase (SEAP) was measured in the supernatant. TNFα secretion in the supernatant was measured via ELISA.
as §1

[4] = system: IL-6; assay: IL-6 secretion in IMG microglial cells after LPS (ELISA); assay type: cell-based; conditions: IMG microglial cells, LPS 100 ng/ml, 24 hours

T1 sequence (O15393 whole entry): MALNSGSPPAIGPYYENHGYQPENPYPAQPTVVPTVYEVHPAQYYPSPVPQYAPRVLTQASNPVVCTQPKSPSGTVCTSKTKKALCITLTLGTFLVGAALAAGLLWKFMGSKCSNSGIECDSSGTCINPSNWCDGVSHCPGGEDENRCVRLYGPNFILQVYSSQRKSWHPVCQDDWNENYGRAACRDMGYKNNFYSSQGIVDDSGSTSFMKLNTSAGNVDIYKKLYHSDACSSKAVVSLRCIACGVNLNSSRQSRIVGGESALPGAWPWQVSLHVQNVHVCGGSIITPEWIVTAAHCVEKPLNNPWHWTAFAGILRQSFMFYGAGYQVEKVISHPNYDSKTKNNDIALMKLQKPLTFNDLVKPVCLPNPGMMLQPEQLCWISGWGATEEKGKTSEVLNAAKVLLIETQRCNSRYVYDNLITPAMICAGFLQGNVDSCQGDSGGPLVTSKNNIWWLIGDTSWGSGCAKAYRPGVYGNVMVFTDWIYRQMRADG

CCCC[C@@H]1NC(=O)[C@H](CC(C)C)NC(=O)[C@H](Cc2ccccc2)NC(=O)[C@H](C(C)C)NC(=O)[C@H](Cc2ccccc2)NC(=O)[C@@H]2CCCN2C(=O)[C@@H](NC(=O)[C@H](CCCNC(=N)N)NC(=O)[C@H](CCCNC(=N)N)NC(=O)[C@H](CCCNC(=N)N)NC(C)=O)CSSC[C@@H](C(=O)O)NC1=O [SA7] (Ac-RRRCPFVFL[Nle]C-OH; disulfide 4-11)
IC50 [1]: 0.0572 µM

HN-RRRFVFLAD (cyclic) (not fully specified; cyclised or stapled) [Peptide A2-3]
activity in reducing NFκB activation ([2]; FIG. 6B/7, up to 50 μg/mL, LPS 5 ng/ml 24 hours, versus SP163M, SA7): superior activities | activity in reducing TNFα [3]: superior activities in reducing TNFα

Ac- RRRKFT[Nal]]LD (cyclic) [Peptide A3-7]
EC50 NFκB ([2]; NFκB reporter cells, LPS 5 ng/ml): 22.41 mg/L | EC50 IL-6 [4]: 3.651 mg/L
